52 compounds from patent US20260184692A1, “HETEROCYCLIC COMPOUNDS, PREPARATION METHODS AND USES THEREOF” (InventisBio Co., Ltd., priority 2022, published 2026) can be followed below.

This assay has as its system OVCAR3 Cells. The experiment in a line: OVCAR3 Cell Viability Assay (CellTiter-Glo). It is filed as cell-based. The settings on record: Homo sapiens, OVCAR-3, 144 h, 6 days incubation, read-out: OVCAR3 CTG IC50. The protocol: OVCAR3 Cells (ATCC, Cat #HTB-161) were seeded at a density of 2000 cells/well in a 96-well clear bottom plate (Greiner, Cat #655098) in 100 μL of complete media (RPMI1640+20% FBS+0.01 mg/mL human insulin). One hundred microliter of complete media was added into the blank well (column 1) for low control. Cells were allowed to adhere to the plate overnight in the incubator at 37° C., 5% CO2. On the following day, 0.5 μL of serially-diluted compounds were added to the cells (columns 2-10) and incubated for 6 days at 37 C, 5% CO2 (final 0.5% DMSO concentration); 0.5 μL of DMSO solution was added into the wells (column 11) for high control. Cell viability was detected according to the CellTiter-Glo Luminescent Cell Viability Assay Kit (Promega, Cat #G7573). Luminescence was recorded on the Tecan Spark plate reader. Inhibition rate (IR) of the tested compounds was determined by the following formula: IR (%)=(1−(RLUcompound−RLUlow control)/(RLUhigh control−RLUlow control))×100%. The IC50 value was calculated using the non-linear regression equation: Y=Bottom+(Top−Bottom)/(1+10^((Log IC50−X)×HillSlope)), where X is Log of compound concentration, Y is percent inhibition (IR (%)), Top and Bottom are plateaus in same units as Y.
Background: ATP-based viability assays read luminescence as a measure of living cells.

Consider `N#Cc1ccc(N2CC3(CCC4(CC4)CC3)c3cc(NS(=O)(=O)CCO)ccc3C2=O)nc1S(=O)(=O)C1CCCC1` [Compound 100], for which the IC50 was < 200 nM. The figure for `CC1(F)CCC2(CC1)CN(c1ccnc(N3CCC(F)(F)CC3)n1)C(=O)c1ccc(NS(=O)(=O)CCO)cc12` (stereo not shown) [Compound 103] is 200 to 2000 nM; for `N#Cc1ccc(N2CC3(CCC(F)(F)CC3)c3cc(NS(=O)(=O)CCO)ccc3C2=O)nc1NC1CC(F)(F)C1` [Compound 104] it is < 200 nM; for `CC1(F)CCC2(CC1)CN(c1ccc(C#N)c(N3CCC(F)(F)CC3)n1)C(=O)c1ccc(NS(=O)(=O)CCO)cc12` (stereo not shown) [Compound 105] it is < 200 nM. The figure for `O=C1c2cnc(NS(=O)(=O)CCO)cc2C2(CCC3(CC3)CC2)CN1c1ccc(F)c(N2CCC(F)(F)CC2)n1` [Compound 107] is < 200 nM; for `CC1(F)CCC2(CC1)CN(c1ccc(C#N)c(NC3CC(F)(F)C3)n1)C(=O)c1ccc(NS(=O)(=O)CCO)cc12` (stereo not shown) [Compound 111] it is 200 to 2000 nM; for `CC1(F)CCC2(CC1)CN(c1ccnc(NC3CC(F)(F)C3)n1)C(=O)c1ccc(NS(=O)(=O)CCO)cc12` (stereo not shown) [Compound 112] it is 200 to 2000 nM. The figure for `CC(C)(C)NS(=O)(=O)c1cccc(N2CC3(CCC4(CC4)CC3)c3cc(NS(=O)(=O)CCO)ccc3C2=O)c1` [Compound 113] is < 200 nM.

Turning to `N#Cc1ccc(N2CC3(CCC4(CCC4)CC3)c3cc(NS(=O)(=O)CCO)ccc3C2=O)nc1NC1CC(F)(F)C1` [Compound 115], the IC50 was < 200 nM. The figure for `CCS(=O)(=O)Nc1ccc2c(c1)C1(CCC3(CC3)CC1)CN(c1ccc(C#N)c(S(=O)(=O)N3CC(F)(F)C3)c1)C2=O` [Compound 118] is < 200 nM; for `CC(C)(C)NS(=O)(=O)c1cc(N2CC3(CCC4(CC4)CC3)c3cc(NS(=O)(=O)CCO)ccc3C2=O)ccc1C#N` [Compound 119] it is < 200 nM; for `CC1(C)CCC2(CC1)CN(c1ccc(C#N)c(NC3CC(F)(F)C3)n1)C(=O)c1cc(F)c(NS(=O)(=O)CCO)cc12` [Compound 121] it is < 200 nM. `N#Cc1ccc(N2CC3(CCC4(CC4)CC3)c3cc(NS(=O)(=O)CCO)ccc3C2=O)nc1C(=O)N1CCCC1` [Compound 122]: the IC50 was 200 to 2000 nM. The figure for `O=C1c2ccc(NS(=O)(=O)CCO)cc2C2(CCC3(CCC3)CC2)CN1c1ccnc(NC2CC(F)(F)C2)n1` [Compound 124] is < 200 nM. The figure for `N#Cc1ccc(N2CC3(CCC(F)(F)CC3)c3cc(NS(=O)(=O)CCO)c(F)cc3C2=O)nc1N1CCC(F)(F)CC1` [Compound 126] is < 200 nM. `CC(C)[C@H](N)C(=O)OCCS(=O)(=O)Nc1ccc2c(c1)C1(CCC3(CC3)CC1)CN(c1ccc(C#N)c(N3CCC(F)(F)CC3)n1)C2=O` [Compound 132]: the IC50 was < 200 nM. The figure for `COc1ccc(N2CC3(CCC4(CC4)CC3)c3cc(NS(=O)(=O)CCOC(=O)[C@@H](N)C(C)C)ccc3C2=O)nc1N1CCC(F)(F)CC1` [Compound 134] is < 200 nM; for `CC(C)[C@H](N)C(=O)OCCS(=O)(=O)Nc1ccc2c(c1)C1(CCC3(CC3)CC1)CN(c1ccnc(NC3CC(F)(F)C3)n1)C2=O` [Compound 135] it is < 200 nM.

Turning to `O=C1c2ccc(NS(=O)(=O)CCO)cc2C2(CCC3(CC3)CC2)CN1c1ccc(O)c(N2CCC(F)(F)CC2)n1` [Compound 137], the IC50 was < 200 nM. The figure for `NC(=O)c1ccc(N2CC3(CCC4(CC4)CC3)c3cc(NS(=O)(=O)CCO)ccc3C2=O)nc1N1CCC(F)(F)CC1` [Compound 139] is < 200 nM; for `Cn1cc(-c2ccc(N3CC4(CCC5(CC5)CC4)c4cc(NS(=O)(=O)CCO)ccc4C3=O)nc2N2CCC(F)(F)CC2)cn1` [Compound 141] it is < 200 nM. The figure for `Cn1ccc(-c2ccc(N3CC4(CCC5(CC5)CC4)c4cc(NS(=O)(=O)CCO)ccc4C3=O)nc2N2CCC(F)(F)CC2)n1` [Compound 142] is < 200 nM. Regarding `CCNC(=O)c1ccc(N2CC3(CCC4(CC4)CC3)c3cc(NS(=O)(=O)CCO)ccc3C2=O)nc1N1CCC(F)(F)CC1` [Compound 144], the IC50 was < 200 nM. The figure for `CCS(=O)(=O)Nc1ccc2c(c1)C1(CCC3(CC3)CC1)CN(c1ccnc(NC3CC(F)(F)C3)n1)C2=O` [Compound 145] is < 200 nM; for `COc1ncc(N2CC3(CCC4(CC4)CC3)c3cc(NS(=O)(=O)CCO)ccc3C2=O)nc1N1CCC(F)(F)CC1` [Compound 146] it is < 200 nM. The figure for `CN(C)CCS(=O)(=O)Nc1ccc2c(c1)C1(CCC3(CC3)CC1)CN(c1ccc(C#N)c(N3CCC(F)(F)CC3)n1)C2=O` [Compound 147] is 200 to 2000 nM; for `COCCS(=O)(=O)Nc1ccc2c(c1)C1(CCC3(CC3)CC1)CN(c1ccnc(NC3CC(F)(F)C3)n1)C2=O` [Compound 148] it is 200 to 2000 nM; for `O=C1c2ccc(NS(=O)(=O)CCO)cc2C2(CCC3(CC3)CC2)CN1c1ccc(C(F)F)c(N2CCC(F)(F)CC2)n1` [Compound 149] it is < 200 nM. Consider `CCc1ccc(N2CC3(CCC4(CC4)CC3)c3cc(NS(=O)(=O)CCO)ccc3C2=O)nc1N1CCC(F)(F)CC1` [Compound 150], for which the IC50 was < 200 nM. The figure for `O=C1c2ccc(NS(=O)(=O)CCO)cc2C2(CCC3(CC3)CC2)CN1c1ccc(C2CC2)c(N2CCC(F)(F)CC2)n1` [Compound 151] is < 200 nM. As for `CN(C)c1ccc(N2CC3(CCC4(CC4)CC3)c3cc(NS(=O)(=O)CCO)ccc3C2=O)nc1N1CCC(F)(F)CC1` [Compound 152], the IC50 was < 200 nM. The figure for `COc1ccc(N2CC3(CCC4(CC4)CC3)c3cc(NS(=O)(=O)CCN(C)C)ccc3C2=O)nc1N1CCC(F)(F)CC1` [Compound 153] is 200 to 2000 nM; for `O=C1c2ccc(NS(=O)(=O)CCO)cc2C2(CCC3(CC3)CC2)CN1c1ccc(C(F)(F)F)c(N2CCC(F)(F)CC2)n1` [Compound 154] it is < 200 nM.

With `O=C1c2ccc(NS(=O)(=O)CCO)cc2C2(CCC3(CC3)CC2)CN1c1ccc(OC(F)F)c(N2CCC(F)(F)CC2)n1` [Compound 155], the IC50 is < 200 nM. The figure for `O=C1c2ccc(NS(=O)(=O)C(F)(F)F)cc2C2(CCC3(CC3)CC2)CN1c1ccnc(NC2CC(F)(F)C2)n1` [Compound 156] is > 2000 nM.

As to `N#Cc1ncc(N2CC3(CCC4(CC4)CC3)c3cc(NS(=O)(=O)CCO)ccc3C2=O)nc1N1CCC(F)(F)CC1` [Compound 157], the IC50 is < 200 nM. The figure for `N#Cc1ccc(N2CC3(CCC4(CC4)CC3)c3cc(NS(=O)(=O)CC(F)(F)F)ccc3C2=O)nc1N1CCC(F)(F)CC1` [Compound 158] is < 200 nM; for `N#Cc1ccc(N2CC3(CCC4(CC4)CC3)c3cc(NS(=O)(=O)C(F)(F)F)ccc3C2=O)nc1N1CCC(F)(F)CC1` [Compound 159] it is 200 to 2000 nM.

As for `Cc1ncc(-c2ccc(N3CC4(CCC5(CC5)CC4)c4cc(NS(=O)(=O)CCO)ccc4C3=O)nc2N2CCC(F)(F)CC2)cn1` [Compound 160], the IC50 is < 200 nM. As to `Cc1ccc(-c2ccc(N3CC4(CCC5(CC5)CC4)c4cc(NS(=O)(=O)CCO)ccc4C3=O)nc2N2CCC(F)(F)CC2)cn1` [Compound 161], the half-maximal inhibitory concentration (IC50) is < 200 nM. The figure for `CCNC(=O)c1ccc(N2CC3(CCC4(CC4)CC3)c3cc(NS(=O)(=O)CCO)ccc3C2=O)nc1NC1CC(F)(F)C1` [Compound 162] is < 200 nM; for `Cn1cc(-c2ccc(N3CC4(CCC5(CC5)CC4)c4cc(NS(=O)(=O)CCO)ccc4C3=O)nc2NC2CC(F)(F)C2)cn1` [Compound 163] it is < 200 nM; for `Cc1cc(-c2ccc(N3CC4(CCC5(CC5)CC4)c4cc(NS(=O)(=O)CCO)ccc4C3=O)nc2N2CCC(F)(F)CC2)ccn1` [Compound 164] it is < 200 nM. The figure for `NC(=O)c1ncc(N2CC3(CCC4(CC4)CC3)c3cc(NS(=O)(=O)CCO)ccc3C2=O)nc1N1CCC(F)(F)CC1` [Compound 165] is < 200 nM; for `O=C1c2ccc(NS(=O)(=O)CC(F)(F)F)cc2C2(CCC3(CC3)CC2)CN1c1ccnc(NC2CC(F)(F)C2)n1` [Compound 166] it is > 2000 nM; for `NC(=O)c1ccc(N2CC3(CCC4(CC4)CC3)c3cc(NS(=O)(=O)CCO)ccc3C2=O)nc1NC1CC(F)(F)C1` [Compound 167] it is < 200 nM. For `Cn1cnc(-c2ccc(N3CC4(CCC5(CC5)CC4)c4cc(NS(=O)(=O)CCO)ccc4C3=O)nc2NC2CC(F)(F)C2)c1` [Compound 169], the IC50 was < 200 nM. The figure for `Cn1ccc(-c2ccc(N3CC4(CCC5(CC5)CC4)c4cc(NS(=O)(=O)CCO)ccc4C3=O)nc2NC2CC(F)(F)C2)n1` [Compound 170] is 200 to 2000 nM. The figure for `CN1CCN(C(=O)c2ccc(N3CC4(CCC5(CC5)CC4)c4cc(NS(=O)(=O)CCO)ccc4C3=O)nc2N2CCC(F)(F)CC2)CC1` [Compound 172] is 200 to 2000 nM; for `Cc1nccc(-c2ccc(N3CC4(CCC5(CC5)CC4)c4cc(NS(=O)(=O)CCO)ccc4C3=O)nc2NC2CC(F)(F)C2)n1` [Compound 174] it is < 200 nM; for `Cn1cnc(-c2ccc(N3CC4(CCC5(CC5)CC4)c4cc(NS(=O)(=O)CCO)ccc4C3=O)nc2N2CCC(F)(F)CC2)n1` [Compound 175] it is < 200 nM.

As for `CN1CC=C(c2ccc(N3CC4(CCC5(CC5)CC4)c4cc(NS(=O)(=O)CCO)ccc4C3=O)nc2N2CCC(F)(F)CC2)CC1` [Compound 176], the IC50 lay within 200 to 2000 nM.

What is called IC50 is the concentration needed to halve the response being measured.
